Experimental findings from patent US12318403B2, “2′3′-cyclic dinucleotides and prodrugs thereof” (INSTITUTE OF ORGANIC CHEMISTRY AND BIOCHEMISTRY ASCR, V.V.I., priority 2019, dated 2025) are described below.

Where two headings read alike, the source gives them in different places.

The EC50 is the concentration at which the effect is half-maximal.

For one assay, the target named is T1, human WT STING (Homo sapiens, UniProt Q86WV6, H232R).
T1 construct: truncated human WT STING or AQ STING (amino acid residues 140-343); 8xHis (N, cleaved yes); SUMO (N, cleaved yes); made in house; host or cells: E. coli Rosetta-gami B (DE3)
Description: Differential Scanning Fluorimetry with WT STING. The note with it: thermal shift vs STING apoprotein; 150 μM CDN; truncated WT STING (residues 140-343). In kind it is binding. (In general: In DSF a fluorescence change marks the thermal transition of the protein.)

In assay [1] the target is T2, AQ human STING (G230A-R293Q) (Homo sapiens, UniProt Q86WV6, G230A/H232R/R293Q).
T2 construct: truncated human WT STING or AQ STING (amino acid residues 140-343); 8xHis (N, cleaved yes); SUMO (N, cleaved yes); made in house; host or cells: E. coli Rosetta-gami B (DE3)
Description: Differential Scanning Fluorimetry with AQ STING. The note with it: thermal shift vs STING apoprotein; 150 μM CDN; truncated AQ STING (residues 140-343). The format is binding.

In assay [2] the target is T3, human wild type STING (WT STING) (Homo sapiens, UniProt Q86WV6, H232R). Description: Digitonin assay using 293T wtSTING-FL reporter cells. The format is cell-based. The note with it: 293T wtSTING-FL cells; compounds in Digitonin buffer 30 minutes, then 5 hours in medium; ISRE firefly luciferase.
For assay [3], the target named is T3, human wild type STING (WT STING). Put plainly: 293T WT STING standard reporter assay. The format is cell-based. To be noted: standard reporter assay without digitonin, 7 hours, ISRE firefly luciferase. For orientation: A reporter such as luciferase makes a cellular process visible.
The subject of assay [4] is peripheral blood mononuclear cell (PBMC). Description: Peripheral blood mononuclear cell assay. The note with it: average of one to four donors.
The mark [5] stands for this setting: 293T wtSTING-FL cells, read-out: 293T WT STING EC50.
Where [6] appears, read: PBMC, read-out: PBMC EC50 IFN-α, compounds 1h, washed, 15 hour incubation, interferon-alpha level in medium.
Setting [7] is: PBMC, read-out: PBMC EC50 IFN-γ, compounds 1h, washed, 15 hour incubation, interferon-gamma level in medium.
Where [8] appears, read: PBMC, read-out: PBMC EC50 TNF-α, compounds 1h, washed, 15 hour incubation, tumor necrosis factor-alpha level in medium.
Setting [9] is: 293T WT STING EC50, 293T wtSTING-FL cells.
The mark [10] stands for this setting: read-out: PBMC EC50 TNF-α, compounds 1h, washed, 15 hour incubation, tumor necrosis factor-alpha level in medium.
[11] abbreviates: read-out: PBMC EC50 IFN-α, compounds 1h, washed, 15 hour incubation, interferon-alpha level in medium.
Setting [12] is: read-out: PBMC EC50 IFN-γ, compounds 1h, washed, 15 hour incubation, interferon-gamma level in medium.

T3 sequence (Q86WV6 whole entry H232R): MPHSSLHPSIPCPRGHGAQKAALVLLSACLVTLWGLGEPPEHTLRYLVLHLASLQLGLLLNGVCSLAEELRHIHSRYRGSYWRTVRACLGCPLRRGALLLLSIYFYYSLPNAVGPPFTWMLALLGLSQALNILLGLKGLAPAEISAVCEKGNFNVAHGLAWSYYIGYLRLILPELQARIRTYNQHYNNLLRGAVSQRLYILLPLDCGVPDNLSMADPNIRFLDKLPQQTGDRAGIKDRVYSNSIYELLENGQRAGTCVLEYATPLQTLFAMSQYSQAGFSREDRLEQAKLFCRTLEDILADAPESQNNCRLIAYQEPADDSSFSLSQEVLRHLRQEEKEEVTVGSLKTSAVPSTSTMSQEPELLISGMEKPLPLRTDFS
T2 sequence (Q86WV6 140-343 G230A/H232R/R293Q): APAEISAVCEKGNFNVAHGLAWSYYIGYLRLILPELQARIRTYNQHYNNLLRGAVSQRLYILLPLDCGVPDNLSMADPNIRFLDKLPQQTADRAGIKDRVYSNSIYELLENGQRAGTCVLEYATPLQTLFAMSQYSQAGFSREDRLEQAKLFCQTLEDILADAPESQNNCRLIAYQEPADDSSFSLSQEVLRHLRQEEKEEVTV
T1 sequence (Q86WV6 140-343 H232R): as the sequence (Q86WV6 140-343 G230A/H232R/R293Q) above, with A91G, Q154R counted along it

Consider `Nc1ncnc2c1ncn2[C@@H]1O[C@@H]2COP(=O)(S)O[C@@H]3[C@H](F)[C@@H](COP(=O)(O)CO[C@H]2[C@H]1F)O[C@H]3n1cnc2c(=O)[nH]cnc21` (single isomer, unassigned) [Compound 13a], for which the “DSF ΔTm WT STING” value on human WT STING stood at 18.3 °C. Besides, in assay [1], the “DSF ΔTm AQ STING” value is 21.8 °C. The values for the EC50 in assay [2] and in assay [3] (setting [5]) were 9 nM and 1300 nM, respectively.

`Nc1nc2c(ncn2[C@@H]2O[C@@H]3COP(=O)(S)CO[C@H]4[C@@H](F)[C@H](n5cnc6c(N)ncnc65)O[C@@H]4COP(=O)(O)O[C@@H]2[C@@H]3F)c(=O)[nH]1` (single isomer, unassigned) [Compound 15a]: the “DSF ΔTm WT STING” value on human WT STING came to 13.8 °C. The “DSF ΔTm AQ STING” value in assay [1] was determined as 19.7 °C. The half-maximal effective concentration (EC50) amounted to 20 nM in assay [2] and 2300 nM in assay [3] (setting [5]).

On to `Nc1nc2c(ncn2[C@@H]2O[C@@H]3COP(=O)(S)CO[C@H]4[C@@H](F)[C@H](n5cnc6c(N)ncnc65)O[C@@H]4COP(=O)(S)O[C@@H]2[C@@H]3F)c(=O)[nH]1` (single isomer, unassigned) [Compound 17a], for which the “DSF ΔTm WT STING” value at human WT STING was 8.7 °C. The “DSF ΔTm AQ STING” value in assay [1] is 14.3 °C. For the same compound, the EC50 in assay [2] is 540 nM; in assay [3] (setting [5]), 10200 nM.

Turning to `CC(C)OC(=O)OCOP1(=O)CO[C@H]2[C@@H](F)[C@H](n3cnc4c(N)ncnc43)O[C@@H]2COP(=O)(OCOC(=O)OC(C)C)O[C@@H]2[C@H](F)[C@@H](CO1)O[C@H]2n1cnc2c(N)ncnc21` (stereo partly drawn) [Compound 80b, {[(1S,6R,8R,9R,10R,16R,18R,19R)-8,18-bis(6-amino-9H-purin-9-yl)-9,19-difluoro-3,13-dioxo-13-({[(propan-2-yloxy)carbonyl]oxy}methoxy)-2,4,7,11,14,17-hexaoxa-3λ^5,13λ^5-diphosphatricyclo[14.2.1.0^6,10]nonadecan-3-yl]oxy}methyl propan-2-yl carbonate], the EC50 was found to be 900 nM in assay [3] (setting [5]), 1300 nM in assay [4] (setting [6]), 1600 nM in assay [4] (setting [7]) and 1500 nM in assay [4] (setting [8]).

As to `CCCCCCCCCCCC(=O)OCSP1(=O)CO[C@H]2[C@@H](F)[C@H](n3cnc4c(N)ncnc43)O[C@@H]2COP(=O)(SCOC(=O)CCCCCCCCCCC)O[C@@H]2[C@H](F)[C@@H](CO1)O[C@H]2n1cnc2c(=O)[nH]c(N)nc21` (single isomer, unassigned) [Compound 78c], the 50% effective concentration (EC50) in assay [3] (setting [9]) was found to be 60 nM; in assay [4] (setting [6]) it was 3400 nM; in assay [4] (setting [10]) it was 3000 nM.

For the compound `CC(C)(C)C(=O)OCOP1(=O)CO[C@H]2[C@@H](F)[C@H](n3cnc4c(N)ncnc43)O[C@@H]2COP(=O)(OCOC(=O)C(C)(C)C)O[C@@H]2[C@H](F)[C@@H](CO1)O[C@H]2n1cnc2c(=O)[nH]cnc21` (single isomer, unassigned) [Compound 77a], the EC50 turned out to be 600 nM in assay [3] (setting [5]), 1700 nM in assay [4] (setting [7]), 2800 nM in assay [4] (setting [11]) and 1400 nM in assay [4] (setting [10]).

As for `Nc1ncnc2c1ncn2[C@@H]1O[C@@H]2COP(=O)(O)O[C@@H]3[C@H](F)[C@@H](COP(=O)(O)CO[C@H]2[C@H]1F)O[C@H]3n1cnc2c(N)ncnc21` [Compound 28, (1S,6R,8R,9R,10R,16R,18R,19R)-8,18-bis(6-amino-9H-purin-9-yl)-9,19-difluoro-3,13-dihydroxy-2,4,7,11,14,17-hexaoxa-3λ^5,13λ^5-diphosphatricyclo[14.2.1.0^6,^10]nonadecane-3,13-dione], on human WT STING, the “DSF ΔTm WT STING” value was determined as 9.3 °C. The “DSF ΔTm AQ STING” value in assay [1] worked out at 13.3 °C. In assay [3] (setting [5]), the EC50 amounted to 6200 nM.

In assay [2], `Nc1ncnc2c1ncn2[C@@H]1O[C@@H]2COP(=O)(S)O[C@@H]3[C@H](F)[C@@H](COP(=O)(S)CO[C@H]2[C@H]1F)O[C@H]3n1cnc2c(N)ncnc21` (single isomer, unassigned) [Compound 30a] came in with an EC50 of 11200 nM.

As to `CC(C)(C)C(=O)OCOP1(=O)CO[C@H]2[C@@H](F)[C@H](n3cnc4c(N)ncnc43)O[C@@H]2COP(=O)(OCOC(=O)C(C)(C)C)O[C@@H]2[C@H](F)[C@@H](CO1)O[C@H]2n1cnc2c(N)ncnc21` (single isomer, unassigned) [Compound 81a], the EC50 amounted to 50 nM in assay [3] (setting [5]), 1400 nM in assay [4] (setting [6]), 1700 nM in assay [4] (setting [7]) and 1600 nM in assay [4] (setting [8]).

With `CC(C)(C)C(=O)OCOP1(=O)CO[C@H]2[C@@H](F)[C@H](n3cnc4c(N)ncnc43)O[C@@H]2COP(=O)(OCOC(=O)C(C)(C)C)O[C@@H]2[C@H](F)[C@@H](CO1)O[C@H]2n1cnc2c(N)ncnc21` (single isomer, unassigned) [Compound 81b], the EC50 in assay [3] (setting [5]) worked out at 50 nM; in assay [4] (setting [11]), 1000 nM; in assay [4] (setting [12]), 1400 nM; in assay [4] (setting [10]) it was 1300 nM.

In the case of `Nc1ncnc2c1ncn2[C@@H]1O[C@@H]2COP(=O)(S)O[C@@H]3[C@H](F)[C@@H](COP(=O)(S)CO[C@H]2[C@H]1F)O[C@H]3n1cnc2c(N)ncnc21` (single isomer, unassigned) [Compound 30c], the concentration for a half-maximal effect (EC50) in assay [2] was found to be 600 nM.

Turning to `CC(C)OC(=O)OCOP1(=O)CO[C@H]2[C@@H](F)[C@H](n3cnc4c(N)ncnc43)O[C@@H]2COP(=O)(OCOC(=O)OC(C)C)O[C@@H]2[C@H](F)[C@@H](CO1)O[C@H]2n1cnc2c(N)ncnc21` (single isomer, unassigned) [Compound 80c], the EC50 in assay [3] (setting [5]) is 1100 nM; in assay [4] (setting [11]), greater than 5000 nM; in assay [4] (setting [12]), greater than 5000 nM; in assay [4] (setting [10]), greater than 5000 nM.

Turning to `CCCCCCCCCCCC(=O)OCSP1(=O)CO[C@H]2[C@@H](F)[C@H](n3cnc4c(N)ncnc43)O[C@@H]2COP(=O)(SCOC(=O)CCCCCCCCCCC)O[C@@H]2[C@H](F)[C@@H](CO1)O[C@H]2n1cnc2c(=O)[nH]c(N)nc21` (single isomer, unassigned) [Compound 78d], the 50% effective concentration (EC50) in assay [3] (setting [9]) is 40 nM; in assay [4] (setting [11]) it was 3400 nM; in assay [4] (setting [10]), 800 nM.

For `CCCCCCCCCCCC(=O)OCOP1(=O)CO[C@H]2[C@@H](F)[C@H](n3cnc4c(N)ncnc43)O[C@@H]2COP(=O)(OCOC(=O)CCCCCCCCCCC)O[C@@H]2[C@H](F)[C@@H](CO1)O[C@H]2n1cnc2c(=O)[nH]cnc21` (single isomer, unassigned) [Compound 79c], the concentration giving a half-maximal response (EC50) amounted to 3 nM in assay [3] (setting [5]), 100 nM in assay [4] (setting [11]), 50 nM in assay [4] (setting [12]) and 90 nM in assay [4] (setting [10]).

On to `CC(C)(C)C(=O)OCOP1(=O)CO[C@H]2[C@@H](F)[C@H](n3cnc4c(N)ncnc43)O[C@@H]2COP(=O)(OCOC(=O)C(C)(C)C)O[C@@H]2[C@H](F)[C@@H](CO1)O[C@H]2n1cnc2c(=O)[nH]cnc21` (single isomer, unassigned) [Compound 77c], for which the EC50 in assay [3] (setting [5]) is 200 nM; in assay [4] (setting [11]), 700 nM; in assay [4] (setting [12]) it was 2300 nM; in assay [4] (setting [10]), 3700 nM.

As to `CCCCCCCCCCCC(=O)OCOP1(=O)CO[C@H]2[C@@H](F)[C@H](n3cnc4c(N)ncnc43)O[C@@H]2COP(=O)(OCOC(=O)CCCCCCCCCCC)O[C@@H]2[C@H](F)[C@@H](CO1)O[C@H]2n1cnc2c(=O)[nH]cnc21` (single isomer, unassigned) [Compound 79a], the figures for the EC50 in assay [3] (setting [5]), in assay [4] (setting [6]) and in assay [4] (setting [12]) were 3 nM, 200 nM and 100 nM, respectively.

In assay [2], `Nc1ncnc2c1ncn2[C@@H]1O[C@@H]2COP(=O)(S)O[C@@H]3[C@H](F)[C@@H](COP(=O)(S)CO[C@H]2[C@H]1F)O[C@H]3n1cnc2c(N)ncnc21` (single isomer, unassigned) [Compound 30b] had an EC50 of 400 nM.

`Nc1nc2c(ncn2[C@@H]2O[C@@H]3COP(=O)(O)O[C@@H]4[C@H](O)[C@@H](COP(=O)(O)O[C@@H]2[C@@H]3O)O[C@H]4n2cnc3c(N)ncnc32)c(=O)[nH]1` [2′2′-cGAMP, reference compound]: in assay [1], the “DSF ΔTm AQ STING” value is 19.4 °C. For the same compound, the EC50 in assay [2] is 30 nM; in assay [3] (setting [5]), 10200 nM.

As for `CCCCCCCCCCCC(=O)OCOP1(=O)CO[C@H]2[C@@H](F)[C@H](n3cnc4c(N)ncnc43)O[C@@H]2COP(=O)(OCOC(=O)CCCCCCCCCCC)O[C@@H]2[C@H](F)[C@@H](CO1)O[C@H]2n1cnc2c(=O)[nH]cnc21` (single isomer, unassigned) [Compound 79b], the half-maximal effective concentration (EC50) was 20 nM in assay [3] (setting [5]), 200 nM in assay [4] (setting [11]), 10 nM in assay [4] (setting [12]) and 200 nM in assay [4] (setting [10]).

Turning to `Nc1nc2c(ncn2[C@@H]2O[C@@H]3COP(=O)(S)CO[C@H]4[C@@H](F)[C@H](n5cnc6c(N)ncnc65)O[C@@H]4COP(=O)(O)O[C@@H]2[C@@H]3F)c(=O)[nH]1` (single isomer, unassigned) [Compound 15b], the “DSF ΔTm WT STING” value on human WT STING came to 19.4 °C. Moreover, the “DSF ΔTm AQ STING” value in assay [1] worked out at 27.0 °C. The concentration giving a half-maximal response (EC50) in assay [3] (setting [5]) came out at 4700 nM.
